From patent publication US9617244B2, “Antibacterial quinoline derivatives” (JANSSEN PHARMACEUTICA NV, priority 2012, dated 2017)
Converted amounts (≈) assume the structure as drawn.

System: Staphylococcus aureus (ATCC29213)
Assay: In-vitro anti-bacterial activity, microtitre plate assay, IC90 determination (non-mycobacterial strains)
Format: cell-based
Details: 90% inhibitory concentration for bacterial growth, 24 hours, resazurin fluorescence
Method: D.2. In-Vitro Method for Testing Compounds for Anti-Bacterial Activity Against Various Non-Mycobacterial Strains
Preparation of Bacterial Suspensions for Susceptibility Testing:
The bacteria used in this study were grown overnight in flasks containing 100 ml Mueller-Hinton Broth (Becton Dickinson—cat. no. 275730) in sterile de-ionized water, with shaking, at 37° C. Stocks (0.5 ml/tube) were stored at −70° C. until use. Bacteria titrations were performed in microtiter plates to detect the TCID50, in which TCID50 represents the dilution that gives rise to bacterial growth in 50% of inoculated cultures. In general, an inoculum level of approximately 100 TCID50 was used for susceptibility testing.
Anti Bacterial Susceptibility Testing: IC90 Determination
Flat-bottom, sterile 96-well plastic microtiter plates were filled with 180 μl of sterile deionized water, supplemented with 0.25% BSA. Subsequently, stock solutions (7.8× final test concentration) of compounds were added in 45 μl volumes in column 2 Serial five-fold dilutions (45 μl in 180 μl) were made directly in the microtiter plates from column 2 to reach column 11. Untreated control samples with (column 1) and without (column 12) inoculum were included in each microtiter plate. Depending on the bacteria type, approximately 10 to 60 CFU per well of bacteria inoculum (100 TCID50), in a volume of 100 μl in 2.8× Mueller-Hinton broth medium, was added to the rows A to H, except column 12. The same volume of broth medium without inoculum was added to column 12 in row A to H. The cultures were incubated at 37° C. for 24 hours under a normal atmosphere (incubator with open air valve and continuous ventilation). At the end of incubation, one day after inoculation, the bacterial growth was quantitated fluorometrically. Therefore resazurin (0.6 mg/ml) was added in a volume of 20 μl to all wells 3 hours after inoculation, and the plates were re-incubated overnight. A change in colour from blue to pink indicated the growth of bacteria. The fluorescence was read in a computer-controlled fluorometer (Cytofluor Biosearch) at an excitation wavelength of 530 nm and an emission wavelength of 590 nm. The % growth inhibition achieved by the compounds was calculated according to standard methods. The IC90 (expressed in μg/ml) was defined as the 90% inhibitory concentration for bacterial growth.

Compound | IC90 STA B29213
O=c1[nH]c2ccc(Br)cc2cc1C(c1cccc(Cl)c1)C1(O)CCNC(Cc2ccccc2)C1 (centres unmarked) [Compound 85] | 7.23 µg/mL (≈ 13.4 µM)
COc1nc2ccc(Cl)cc2cc1C(c1ccc(Cl)cc1)C1(O)CCNC(Cc2ccccc2)C1 (centres unmarked) [Compound 95] | 2.02 µg/mL (≈ 3.98 µM)
CS(=O)(=O)c1ccc2[nH]c(=O)c(C(c3ccc(Cl)cc3)C3(O)CCNC(Cc4ccccc4)C3)cc2c1 (centres unmarked) [Compound 119] | >16.90 µg/mL
CS(=O)(=O)c1ccc2[nH]c(=O)c(C(c3ccc(Cl)cc3)C3(O)CCNC(Cc4ccccc4)C3)cc2c1 (centres unmarked) [Compound 120] | 6.76 µg/mL (≈ 12.6 µM)
O=c1[nH]c2ccc(Br)cc2cc1C(c1ccc(Cl)cc1)C1(O)CCNC(Cc2ccc(F)c(F)c2)C1 (centres unmarked) [Compound 126] | 3.85 µg/mL (≈ 6.71 µM)
O=c1[nH]c2ccc(Br)cc2cc1C(c1ccc(Cl)cc1)C1(O)CCNC(Cc2ccc(F)c(F)c2)C1 (centres unmarked) [Compound 127] | 1.93 µg/mL (≈ 3.36 µM)
Cc1cc(F)ccc1C1CC(O)(C(c2cccc(Cl)c2)c2cc3cc(Br)ccc3[nH]c2=O)CCN1 (centres unmarked) [Compound 135] | 1.84 µg/mL (≈ 3.31 µM)
Cc1cc(F)ccc1C1CC(O)(C(c2cccc(Cl)c2)c2cc3cc(Br)ccc3[nH]c2=O)CCN1 (centres unmarked) [Compound 136] | 2.08 µg/mL (≈ 3.74 µM)
Cc1cc(F)ccc1C1CC(O)(C(c2cccc(Cl)c2)c2cc3cc(Br)ccc3[nH]c2=O)CCN1 (centres unmarked) [Compound 137] | 3.69 µg/mL (≈ 6.64 µM)
Cc1cc(F)ccc1C1CC(O)(C(c2cccc(Cl)c2)c2cc3cc(Br)ccc3[nH]c2=O)CCN1 (centres unmarked) [Compound 138] | 2.35 µg/mL (≈ 4.23 µM)
COc1nc2ccccc2cc1C(c1ccc(Cl)cc1)C1(O)CCNC(Cc2ccc(F)c(F)c2)C1 (centres unmarked) [Compound 140] | 2.55 µg/mL (≈ 5.01 µM)

Now from value to compound:

IC90 STA B29213 | Compound
1.87 µg/mL (≈ 3.36 µM) | Cc1cc(F)ccc1C1CC(O)(C(c2ccc(Cl)cc2)c2cc3cc(Br)ccc3[nH]c2=O)CCN1 (centres unmarked) [Compound 106]
1.87 µg/mL (≈ 3.36 µM) | Cc1cc(F)ccc1C1CC(O)(C(c2ccc(Cl)cc2)c2cc3cc(Br)ccc3[nH]c2=O)CCN1 (centres unmarked) [Compound 110]
3.00 µg/mL (≈ 6.3 µM) | COc1nc2ccc(Br)cc2cc1C(c1ccc(Cl)cc1)C1(O)CCNC(C)C1 (centres unmarked) [Compound 125]
4.56 µg/mL (≈ 8.48 µM) | O=c1[nH]c2ccc(Br)cc2cc1C(c1ccc(Cl)cc1)C1(O)CCNC(Cc2ccccc2)C1 (centres unmarked) [Compound 128]
11.60 µg/mL (≈ 25.1 µM) | CC1CC(O)(C(c2ccc(Cl)cc2)c2cc3cc(Br)ccc3[nH]c2=O)CCN1 (centres unmarked) [Compound 130]
>6.27 µg/mL | CC1CC(O)(C(c2ccc(Cl)cc2)c2cc3cc(Br)ccc3[nH]c2=O)CCN1 (centres unmarked) [Compound 131]
3.85 µg/mL (≈ 6.71 µM) | O=c1[nH]c2ccc(Br)cc2cc1C(c1ccc(Cl)cc1)C1(O)CCNC(Cc2ccc(F)c(F)c2)C1 (centres unmarked) [Compound 133]
3.07 µg/mL (≈ 5.35 µM) | O=c1[nH]c2ccc(Br)cc2cc1C(c1ccc(Cl)cc1)C1(O)CCNC(Cc2ccc(F)c(F)c2)C1 (centres unmarked) [Compound 134]

System: Mycobacterium smegmatis (ATCC607)
Assay: In-vitro anti-bacterial activity against strain M. Smegmatis ATCC607
Format: cell-based
Details: 90% inhibitory concentration for bacterial growth, 48 hours, Alamar Blue fluorescence
Method: D.1. In-Vitro Method for Testing Compounds for Anti-Bacterial Activity Against Strain M. Smegmatis ATCC607
Flat-bottom, sterile 96-well plastic microtiter plates were filled with 180 μl of sterile deionized water, supplemented with 0.25% BSA. Subsequently, stock solutions (7.8× final test concentration) of compounds were added in 45 μl volumes to a series of duplicate wells in column 2 so as to allow evaluation of their effects on bacterial growth. Serial five-fold dilutions (45 μl in 180 μl) were made directly in the microtiter plates from column 2 to 11 using a customised robot system (Zymark Corp., Hopkinton, Mass.). Pipette tips were changed after every 3 dilutions to minimize pipetting errors with high hydrophobic compounds. Untreated control samples with (column 1) and without (column 12) inoculum were included in each microtiter plate. Approximately 250 CFU per well of bacteria inoculum, in a volume of 100 μl in 2.8× Mueller-Hinton broth medium, was added to the rows A to H, except column 12. The same volume of broth medium without inoculum was added to column 12 in row A to H. The cultures were incubated at 37° C. for 48 hours in a humidified 5% CO2 atmosphere (incubator with open air valve and continuous ventilation). At the end of incubation, two days after inoculation, the bacterial growth was quantitated fluorometrically. Therefore Alamar Blue (10×) was added to all wells in a volume of 20 μl and plates were incubated for another 2 hours at […]
The fluorescence was read in a computer-controlled fluorometer (Cytofluor, Biosearch) at an excitation wavelength of 530 nm and an emission wavelength of 590 nm (gain 30). The percentage growth inhibition achieved by the compounds was calculated according to standard methods and expressed as IC90 (μg/ml) which defines the 90% inhibitory concentration for bacterial growth.

Compound | IC90 MSM 607
COc1nc2ccc(Cl)cc2cc1C(c1ccc(Cl)cc1)C1(O)CCNC(Cc2ccccc2)C1 (centres unmarked) [Compound 95] | 1.43 µg/mL (≈ 2.82 µM)
CS(=O)(=O)c1ccc2[nH]c(=O)c(C(c3ccc(Cl)cc3)C3(O)CCNC(Cc4ccccc4)C3)cc2c1 (centres unmarked) [Compound 119] | >16.90 µg/mL
CS(=O)(=O)c1ccc2[nH]c(=O)c(C(c3ccc(Cl)cc3)C3(O)CCNC(Cc4ccccc4)C3)cc2c1 (centres unmarked) [Compound 120] | 5.37 µg/mL (≈ 10 µM)
O=c1[nH]c2ccc(Br)cc2cc1C(c1ccc(Cl)cc1)C1(O)CCNC(Cc2ccc(F)c(F)c2)C1 (centres unmarked) [Compound 126] | 3.06 µg/mL (≈ 5.33 µM)
O=c1[nH]c2ccc(Br)cc2cc1C(c1ccc(Cl)cc1)C1(O)CCNC(Cc2ccc(F)c(F)c2)C1 (centres unmarked) [Compound 127] | 3.06 µg/mL (≈ 5.33 µM)
Cc1cc(F)ccc1C1CC(O)(C(c2cccc(Cl)c2)c2cc3cc(Br)ccc3[nH]c2=O)CCN1 (centres unmarked) [Compound 135] | 1.84 µg/mL (≈ 3.31 µM)
Cc1cc(F)ccc1C1CC(O)(C(c2cccc(Cl)c2)c2cc3cc(Br)ccc3[nH]c2=O)CCN1 (centres unmarked) [Compound 136] | 1.47 µg/mL (≈ 2.64 µM)
Cc1cc(F)ccc1C1CC(O)(C(c2cccc(Cl)c2)c2cc3cc(Br)ccc3[nH]c2=O)CCN1 (centres unmarked) [Compound 137] | 1.65 µg/mL (≈ 2.97 µM)
Cc1cc(F)ccc1C1CC(O)(C(c2cccc(Cl)c2)c2cc3cc(Br)ccc3[nH]c2=O)CCN1 (centres unmarked) [Compound 138] | 1.18 µg/mL (≈ 2.12 µM)
COc1nc2ccccc2cc1C(c1ccc(Cl)cc1)C1(O)CCNC(Cc2ccc(F)c(F)c2)C1 (centres unmarked) [Compound 140] | 0.72 µg/mL (≈ 1.41 µM)

Second part, the compound after the results:

IC90 MSM 607 | Compound
<0.93 µg/mL | Cc1cc(F)ccc1C1CC(O)(C(c2ccc(Cl)cc2)c2cc3cc(Br)ccc3[nH]c2=O)CCN1 (centres unmarked) [Compound 106]
1.87 µg/mL (≈ 3.36 µM) | Cc1cc(F)ccc1C1CC(O)(C(c2ccc(Cl)cc2)c2cc3cc(Br)ccc3[nH]c2=O)CCN1 (centres unmarked) [Compound 110]
3.00 µg/mL (≈ 6.3 µM) | COc1nc2ccc(Br)cc2cc1C(c1ccc(Cl)cc1)C1(O)CCNC(C)C1 (centres unmarked) [Compound 125]
5.81 µg/mL (≈ 12.6 µM) | CC1CC(O)(C(c2ccc(Cl)cc2)c2cc3cc(Br)ccc3[nH]c2=O)CCN1 (centres unmarked) [Compound 130]
4.98 µg/mL (≈ 10.8 µM) | CC1CC(O)(C(c2ccc(Cl)cc2)c2cc3cc(Br)ccc3[nH]c2=O)CCN1 (centres unmarked) [Compound 131]
3.06 µg/mL (≈ 5.33 µM) | O=c1[nH]c2ccc(Br)cc2cc1C(c1ccc(Cl)cc1)C1(O)CCNC(Cc2ccc(F)c(F)c2)C1 (centres unmarked) [Compound 133]
3.86 µg/mL (≈ 6.73 µM) | O=c1[nH]c2ccc(Br)cc2cc1C(c1ccc(Cl)cc1)C1(O)CCNC(Cc2ccc(F)c(F)c2)C1 (centres unmarked) [Compound 134]

Same assay, conditions: Mycolicibacterium smegmatis, ATCC607, 48 h, 90% inhibitory concentration for bacterial growth, Alamar Blue fluorescence, read-out: IC90 MSM 607

IC90 | Compound
3.62 µg/mL (≈ 6.73 µM) | O=c1[nH]c2ccc(Br)cc2cc1C(c1cccc(Cl)c1)C1(O)CCNC(Cc2ccccc2)C1 (centres unmarked) [Compound 85]
3.62 µg/mL (≈ 6.73 µM) | O=c1[nH]c2ccc(Br)cc2cc1C(c1ccc(Cl)cc1)C1(O)CCNC(Cc2ccccc2)C1 (centres unmarked) [Compound 128]
